Measurements: ChEMBL document CHEMBL1201862, “PubChem BioAssay data set” (2004)
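Where inhibition never reached the appropriate level, the endpoint shown equals the highest concentration tested. Otherwise, values were interpolated linearly from a five-concentration, 48-hour dose response in 96-well plates. At the GI50, growth is halved.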 Activity calls are given as the source filed them. Cut-off read from the data, not from the text of the source: active = GI50 up to about 1.1 µM and inactive = higher. Where a SMILES comes first, the peptide text is derived from it. Square brackets hold non-standard residues; d marks the D form. Peptide text beside a SMILES is read from it.

How the values were obtained:
Experiment in all cases: NCI anticancer screen, dose series, 48 h
SNB-75 = test system: SNB-75
NCI-H23 = test system: NCI-H23
SK-MEL-2 = test system: SK-MEL-2
MCF7 = test system: MCF7
SK-MEL-5 = test system: SK-MEL-5
DLD-1 = test system: DLD-1
CCRF-CEM = test system: CCRF-CEM
SNB-19 = test system: SNB-19
HT-29 = test system: HT-29
IGROV-1 = test system: IGROV-1
EKVX = test system: EKVX
OVCAR-8 = test system: OVCAR-8
SK-OV-3 = test system: SK-OV-3
M14 = test system: M14
Malme-3M = test system: Malme-3M
BT-549 = test system: BT-549
MDA-MB-435 = test system: MDA-MB-435
MDA-MB-231 = test system: MDA-MB-231
Hs-578T = test system: Hs-578T

Compound | GI50 (SNB-75) | GI50 (NCI-H23) | GI50 (SK-MEL-2) | GI50 (MCF7) | GI50 (SK-MEL-5) | GI50 (DLD-1) | GI50 (CCRF-CEM) | GI50 (SNB-19) | GI50 (HT-29) | GI50 (IGROV-1) | GI50 (EKVX) | GI50 (OVCAR-8) | GI50 (SK-OV-3) | GI50 (M14) | GI50 (Malme-3M) | GI50 (BT-549) | GI50 (MDA-MB-435) | GI50 (MDA-MB-231) | GI50 (Hs-578T)
CN(C)c1cccc(OC(=O)NCCCl)c1 | 63.8 µM (inactive) | > 100 µM (inactive) | > 100 µM (inactive) | > 100 µM (inactive) | > 100 µM (inactive) | > 100 µM (inactive) | 68.2 µM (inactive) | > 100 µM (inactive) | > 100 µM (inactive) | > 100 µM (inactive) | > 100 µM (inactive) | > 100 µM (inactive) | > 100 µM (inactive) | – | – | – | – | – | –
CC(C)Cc1ccc(C(C)/C=C2\CCC(CN3CCOCC3)C2=O)cc1 (stereo not given) | 8.34 µM (inactive) | 12.9 µM (inactive) | 16.6 µM (inactive) | 4.31 µM (inactive) | 10.4 µM (inactive) | 2.71 µM (inactive) | 1.3 µM (inactive) | 8.51 µM (inactive) | 6.73 µM (inactive) | 7.71 µM (inactive) | 18 µM (inactive) | 3.61 µM (inactive) | 18.8 µM (inactive) | 5.02 µM (inactive) | 13.5 µM (inactive) | 17.9 µM (inactive) | 6.92 µM (inactive) | 1.73 µM (inactive) | 3.6 µM (inactive)
CC(C)C[C@H](NC(=O)[C@H](CC(C)C)NC(=O)[C@@H](Cc1c[nH]c2ccccc12)NC(=O)[C@H](Cc1ccccc1)NC(=O)[C@@H](Cc1c[nH]c2ccccc12)NC(=O)[C@H](CCC(N)=O)NC(=O)[C@@H](CCC(N)=O)NC(=O)[C@@H]1CCCN1C(=O)[C@@H](CCCCN)NC(=O)[C@H]1CCCN1C(=O)[C@H](N)CCCN=C(N)N)C(N)=O (H-[dR][dP][dK]P[dQ]Q[dW]F[dW]LL-NH2) | > 100 µM (inactive) | > 100 µM (inactive) | > 100 µM (inactive) | > 100 µM (inactive) | > 100 µM (inactive) | > 100 µM (inactive) | > 100 µM (inactive) | 44.9 µM (inactive) | > 100 µM (inactive) | > 100 µM (inactive) | > 100 µM (inactive) | > 100 µM (inactive) | > 100 µM (inactive) | – | > 31.6 µM (inactive) | – | – | – | –
C[Si](C)(C)[C@@]1([Se]c2ccccc2)CC[C@@H]1C(=O)c1ccccc1 | 61 µM (inactive) | 33.7 µM (inactive) | 23.7 µM (inactive) | – | 18.5 µM (inactive) | 77.4 µM (inactive) | 27.7 µM (inactive) | 35.8 µM (inactive) | 42.3 µM (inactive) | > 100 µM (inactive) | 49.3 µM (inactive) | 50.5 µM (inactive) | > 100 µM (inactive) | 80.4 µM (inactive) | 70 µM (inactive) | – | – | – | –
Cc1cc(/N=N/c2ccc(/N=N/c3c(O)c(S(=O)(=O)O)cc4cc(S(=O)(=O)O)ccc34)cc2C)ccc1/N=N/c1ccc2cc(S(=O)(=O)O)cc(S(=O)(=O)O)c2c1 | > 100 µM (inactive) | > 100 µM (inactive) | > 100 µM (inactive) | > 100 µM (inactive) | > 100 µM (inactive) | > 100 µM (inactive) | > 100 µM (inactive) | > 100 µM (inactive) | > 31.6 µM (inactive) | > 100 µM (inactive) | > 100 µM (inactive) | > 31.6 µM (inactive) | > 47 µM (inactive) | – | > 100 µM (inactive) | – | – | – | –
CCOC(=O)C(Sc1ccccc1)c1c(OC)cc(=O)oc1/C=[N+](/[O-])c1ccc(N(C)C)cc1 (stereo not given) | 31.3 µM (inactive) | 27.5 µM (inactive) | 24.9 µM (inactive) | – | 20 µM (inactive) | 28.1 µM (inactive) | 4.52 µM (inactive) | 54.8 µM (inactive) | 16.3 µM (inactive) | 42.4 µM (inactive) | 33.3 µM (inactive) | 18.4 µM (inactive) | 75.7 µM (inactive) | 16.2 µM (inactive) | 17.2 µM (inactive) | – | – | – | –
O=C(CCN1CCOCC1)C(=Cc1ccccc1)C(=O)CCN1CCOCC1 | 15.5 µM (inactive) | 2.3 µM (inactive) | 8.34 µM (inactive) | 3.19 µM (inactive) | 7.08 µM (inactive) | 1.82 µM (inactive) | 0.796 µM (active) | 14.9 µM (inactive) | 2.98 µM (inactive) | 6.78 µM (inactive) | 2.21 µM (inactive) | 2.91 µM (inactive) | 16.6 µM (inactive) | – | 2.45 µM (inactive) | – | – | – | –
CC1NC(=O)CNC(=O)CNC(=O)C(Cc2ccc(O)cc2)NC(=O)C(C(C)C)NC(=O)C(C)NC1=O (stereo not given) (cyclo(GGAAVY); configuration not given here) | > 100 µM (inactive) | > 100 µM (inactive) | > 100 µM (inactive) | > 100 µM (inactive) | > 100 µM (inactive) | > 100 µM (inactive) | > 100 µM (inactive) | > 100 µM (inactive) | > 100 µM (inactive) | > 100 µM (inactive) | > 100 µM (inactive) | > 100 µM (inactive) | > 100 µM (inactive) | – | – | – | – | – | –
O=C1C(=O)N(c2ccc(Cl)c(Cl)c2)C(=O)C(=O)C1c1nc2ccccc2s1 | > 100 µM (inactive) | > 100 µM (inactive) | > 100 µM (inactive) | – | > 100 µM (inactive) | > 100 µM (inactive) | 38.2 µM (inactive) | 44 µM (inactive) | > 100 µM (inactive) | > 100 µM (inactive) | > 100 µM (inactive) | 56.5 µM (inactive) | > 100 µM (inactive) | > 100 µM (inactive) | > 100 µM (inactive) | – | – | – | –
CCOc1ccccc1NC(=O)CC1Sc2ccccc2NC1=O (stereo not given) | 31.2 µM (inactive) | 61.2 µM (inactive) | 45.8 µM (inactive) | – | 26.1 µM (inactive) | 75.7 µM (inactive) | 31.8 µM (inactive) | > 100 µM (inactive) | 55.3 µM (inactive) | 45.5 µM (inactive) | 41.5 µM (inactive) | 58.3 µM (inactive) | > 100 µM (inactive) | 45.8 µM (inactive) | 52.7 µM (inactive) | – | – | – | –
CCc1ccccc1NC(=O)C1=C(C)NC(C)=C(C(=O)Nc2ccccc2CC)C1c1ccccc1Cl | 71.6 µM (inactive) | > 100 µM (inactive) | > 100 µM (inactive) | – | > 100 µM (inactive) | > 100 µM (inactive) | 37.8 µM (inactive) | > 100 µM (inactive) | > 100 µM (inactive) | > 100 µM (inactive) | > 100 µM (inactive) | > 100 µM (inactive) | > 100 µM (inactive) | > 100 µM (inactive) | > 100 µM (inactive) | – | – | – | –
CCS(=O)(=O)Nc1ccc(Nc2c3ccccc3nc3ccccc23)c(OC)c1 | 0.284 µM (active) | 0.203 µM (active) | 5.37 µM (inactive) | 0.0984 µM (active) | 0.796 µM (active) | 2.56 µM (inactive) | 0.0485 µM (active) | 0.273 µM (active) | 1.07 µM (active) | 7.94 µM (inactive) | – | 0.885 µM (active) | 0.203 µM (active) | – | 0.515 µM (active) | – | – | – | –
NC(=O)c1ncn(CCN2CCN(C(=O)NCCCCCCNC(=O)N3CCN(CCn4cnc(C(N)=O)c4N)CC3)CC2)c1N | > 100 µM (inactive) | > 100 µM (inactive) | > 100 µM (inactive) | – | > 100 µM (inactive) | > 100 µM (inactive) | > 100 µM (inactive) | > 100 µM (inactive) | > 100 µM (inactive) | > 100 µM (inactive) | > 100 µM (inactive) | > 100 µM (inactive) | > 100 µM (inactive) | > 100 µM (inactive) | > 100 µM (inactive) | – | – | – | –
O=C(NC/C=C/CO)c1ccccc1 | 65.8 µM (inactive) | > 100 µM (inactive) | > 100 µM (inactive) | > 100 µM (inactive) | > 100 µM (inactive) | > 100 µM (inactive) | > 100 µM (inactive) | > 100 µM (inactive) | > 100 µM (inactive) | > 100 µM (inactive) | > 100 µM (inactive) | > 100 µM (inactive) | > 100 µM (inactive) | – | > 100 µM (inactive) | – | – | – | –
Cc1cc(Cl)ccc1NC(=O)CC1SC(Nc2ccccc2Cl)=NC1=O (stereo not given) | 38.7 µM (inactive) | 38.6 µM (inactive) | 48.4 µM (inactive) | – | 36.6 µM (inactive) | 28.1 µM (inactive) | 29.6 µM (inactive) | 32.4 µM (inactive) | 37.1 µM (inactive) | 49.5 µM (inactive) | 73.3 µM (inactive) | 29.6 µM (inactive) | 49.3 µM (inactive) | 49.2 µM (inactive) | 91.8 µM (inactive) | – | – | – | –
Cc1nc2c(=O)n(C)c(=O)nc-2n(-c2ccc(Cl)cc2)c1C | > 100 µM (inactive) | > 100 µM (inactive) | > 100 µM (inactive) | – | 79.1 µM (inactive) | 85.9 µM (inactive) | 60.1 µM (inactive) | > 100 µM (inactive) | > 100 µM (inactive) | > 100 µM (inactive) | > 100 µM (inactive) | > 100 µM (inactive) | > 100 µM (inactive) | 82.6 µM (inactive) | > 100 µM (inactive) | – | – | – | –
C[n+]1ccc2[nH]c3ccccc3c2c1 | > 100 µM (inactive) | > 100 µM (inactive) | > 100 µM (inactive) | – | > 78.3 µM (inactive) | > 100 µM (inactive) | > 100 µM (inactive) | > 100 µM (inactive) | > 100 µM (inactive) | > 100 µM (inactive) | > 100 µM (inactive) | > 100 µM (inactive) | > 100 µM (inactive) | > 100 µM (inactive) | 35.6 µM (inactive) | – | – | – | –
